pIC50: −log10 of the molar value.
Experiments:
Translocator protein = Translocator protein (Homo sapiens, UniProt P30536); experiment: Inhibition of peripheral-type benzodiazepine receptor (unknown origin)
Adenosine receptor A3 = target: T1, Adenosine receptor A3 (Homo sapiens, UniProt P0DMS8); experiment: Inhibition of adenosine A3 receptor (unknown origin)
T1 sequence (P0DMS8 whole entry): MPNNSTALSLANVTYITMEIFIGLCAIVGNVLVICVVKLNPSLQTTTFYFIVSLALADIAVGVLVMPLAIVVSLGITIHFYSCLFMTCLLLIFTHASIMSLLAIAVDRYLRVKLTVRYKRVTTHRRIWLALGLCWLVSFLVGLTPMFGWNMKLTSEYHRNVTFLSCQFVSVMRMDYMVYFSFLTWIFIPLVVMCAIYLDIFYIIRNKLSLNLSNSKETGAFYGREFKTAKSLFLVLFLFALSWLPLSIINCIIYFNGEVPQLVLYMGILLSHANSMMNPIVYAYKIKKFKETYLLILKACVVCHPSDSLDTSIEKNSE

Translocator protein, sequence (P30536 whole entry): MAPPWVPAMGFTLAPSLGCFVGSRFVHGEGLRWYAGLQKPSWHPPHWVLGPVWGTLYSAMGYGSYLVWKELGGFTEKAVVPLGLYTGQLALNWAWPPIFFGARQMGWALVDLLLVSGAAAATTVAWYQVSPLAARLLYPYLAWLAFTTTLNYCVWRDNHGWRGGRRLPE

COC(=O)C[C@@H]1N=C(c2ccc(Cl)cc2)c2c(sc(C)c2C)-n2c(C)nnc21
pIC50 (Translocator protein): 6.40
pIC50 (Adenosine receptor A3): 5.85

— ChEMBL document CHEMBL4196097, “Emerging Approaches for the Identification of Protein Targets of Small Molecules - A Practitioners' Perspective” (J Med Chem, 2018)
